Among the data in patent US20230159469A1, “NOVEL PHTHALAZINE DERIVATIVE HAVING ECTONUCLOEOTIDE PYROPHOSPHATASE/PHOSPHODIESTE RASE INHIBITORY ACTIVITY, AND USE THEREOF” (TXINNO BIOSCIENCE INC., priority 2020, published 2023) are IC50 values, retold here.

Structures can show the parent of a compound that is named as a salt. A value given as a limit tells only on which side of the number the result lay.

The assay deals with T1, human recombinant ENPP1 (Homo sapiens, UniProt P22413).
T1 construct: purchased R & D systems
T1 sequence (P22413 1-925): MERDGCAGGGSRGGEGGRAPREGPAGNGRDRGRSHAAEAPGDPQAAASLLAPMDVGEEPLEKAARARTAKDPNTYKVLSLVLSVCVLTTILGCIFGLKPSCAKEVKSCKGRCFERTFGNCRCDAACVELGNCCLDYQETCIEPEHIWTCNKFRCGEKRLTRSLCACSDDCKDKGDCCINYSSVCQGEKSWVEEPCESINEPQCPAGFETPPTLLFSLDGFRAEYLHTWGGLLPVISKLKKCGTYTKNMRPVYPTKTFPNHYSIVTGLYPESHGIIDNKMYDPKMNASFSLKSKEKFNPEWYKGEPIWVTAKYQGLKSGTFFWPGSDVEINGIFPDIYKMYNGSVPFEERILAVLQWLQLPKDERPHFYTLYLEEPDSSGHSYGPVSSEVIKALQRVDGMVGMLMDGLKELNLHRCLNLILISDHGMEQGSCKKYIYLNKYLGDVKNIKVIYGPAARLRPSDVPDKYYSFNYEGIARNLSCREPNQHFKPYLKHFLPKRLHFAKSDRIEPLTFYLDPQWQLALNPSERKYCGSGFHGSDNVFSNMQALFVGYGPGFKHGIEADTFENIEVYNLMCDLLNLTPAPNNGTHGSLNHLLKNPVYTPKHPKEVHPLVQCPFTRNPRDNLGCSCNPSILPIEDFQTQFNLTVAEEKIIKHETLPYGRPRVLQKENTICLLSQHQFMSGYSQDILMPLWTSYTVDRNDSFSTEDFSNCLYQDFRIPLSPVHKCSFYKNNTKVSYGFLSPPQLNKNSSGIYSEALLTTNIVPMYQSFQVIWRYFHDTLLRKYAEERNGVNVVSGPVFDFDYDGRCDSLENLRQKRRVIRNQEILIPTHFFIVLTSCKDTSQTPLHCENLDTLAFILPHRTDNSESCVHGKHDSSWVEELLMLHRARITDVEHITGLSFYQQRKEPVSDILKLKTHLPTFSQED
The assay can be described thus: ENPP1 enzyme assay with cGAMP substrate (AMP-Glo luminescence). Format: biochemical. The note with it: human recombinant ENPP1 3 ng/reaction, cGAMP 5 μM, 37° C. 90 minutes, read-out: Enzymatic activity (ENPP1 IC50). The protocol:
ENPP1 hydrolyzes nucleotides or nucleotide derivatives to produce nucleoside -5′-monophosphate and pyrophosphate. in addition, ENPP1 hydrolyzes 2′,3′-cGAMP to produce 5′-adenosine monophosphate (AMP) and 5′-guanosine monophosphate (GMP). AMP produced from the reaction is measured using the AMP-Glo® kit (Promega). The AMP-Glo® kit contains two reagents. The first reagent terminates the AMP-producing enzymatic reaction, removes ATP and converts the produced AMP into ADP. The second reagent converts ADP to ATP which is used to generate luminescence in the luciferase reaction. The amount of luminescence measured is proportional to the amount of AMP produced by ENPP1.
The final reaction mixture contains 50 mM Tris (pH 8.5) buffer, 250 mM NaCl, 0.5 mM. CaCl2, 1 μM ZnCl2, 5% glycerol and 1% DMSO. […] The reaction was initiated by addition of cGAMP (at a final concentration of 5 μM) and reacted at 37° C. for 90 minutes. At the end of the reaction, 10 μl of the AMP-Glo first reagent was added to stop the reaction and the result was stored at room temperature for […]. After storage, 20 μl of an AMP detection solution (a mixture of AMP-Glo II reagent and Kinase-Gio at a ratio of 1:100) was added and stored at room. temperature for 1 hour. Luminescence signals were measured using a Victor® plate reader (Perkin Elmer). The maximal activity control (containing enzymes and substrates only in the presence of 1% DMSO; MAX) and the minimal activity control (containing substrates and 1% DMSO; MIN) were evaluated simultaneously. In each experiment, serially diluted reference ENPP1 inhibitors were tested together. IC50, indicating % residual activity versus compound concentration was determined by fitting inhibition curves using the 3-parameter analysis of GraphPad Prism® software. Serially diluted samples of one compound were tested two or more times and an average IC50 of each compound was calculated.
A word on the IC50: it is the concentration at which inhibition is half-maximal. Take `CNc1ccc(Cc2nn(C)c(=O)c3cc(OC)c(OC)cc23)cc1` [Example 164, 6,7-dimethoxy-2-methyl-4-(4-(methylamino)benzyl)phthalazin-1(2H)-one hydrochloride]: the IC50 was > 10 µM.
As for `Cn1nc(-c2cccc(NS(N)(=O)=O)c2)c2ccccc2c1=O` [Compound No. 88, N-(3-(3-methyl-4-oxo-3,4-dihydrophthalazin-1-yl)phenyl)sulfamide hydrochloride], the figure is < 1 µM.
Turning to `COc1cc2c(-c3ccc4c(c3)CCN(S(=O)(=O)NC(=O)OC(C)(C)C)C4)n[nH]c(=O)c2cc1OC` [Compound No. 85, tert-butyl ((6-(6,7-dimethoxy-4-oxo-3,4-dihydrophthalazin-1-yl)-3,4-dihydroisoquinolin-2(1H)-yl)sulfonyl)carbamate], the IC50 was > 10 µM.
The result for `Cn1nc(-c2cccc(NS(=O)(=O)NC(=O)OC(C)(C)C)c2)c2ccccc2c1=O` [Compound No. 61, tert-butyl (N-(3-(3-methyl-4-oxo-3,4-dihydrophthalazin-1-yl)phenyl)sulfamoyl)carbamate] reads > 10 µM; that for `COc1cc2c(-c3ccc(CNS(=O)(=O)NC(=O)OC(C)(C)C)cc3)n[nH]c(=O)c2cc1OC` [Compound No. 76, tert-butyl (N-(4-(6,7-dimethoxy-4-oxo-3,4-dihydrophthalazin-1-yl)benzyl)sulfamoyl)carbamate], 1 to 10 µM; that for `NS(=O)(=O)NCc1ccc(-c2n[nH]c(=O)c3ccccc23)cc1C(F)(F)F` [Compound No. 126, N-(4-(4-oxo-3,4-dihydrophthalazin-1-yl)-2-(trifluoromethyl)benzyl)sulfamide hydrochloride], < 1 µM.
As for `COc1cc2c(-c3ccc4c(c3)CCN(C(=O)OC(C)(C)C)C4)n[nH]c(=O)c2cc1OC` [Compound No. 28, tert-butyl 6-(6,7-dimethoxy-4-oxo-3,4-dihydrophthalazin-1-yl)-3,4-dihydroisoquinoline-2(1H)-carboxylate], the figure is > 10 µM; as for `NS(=O)(=O)NCCC1CCN(c2n[nH]c(=O)c3ccccc23)CC1` [Compound No. 142, N-(2-(1-(4-oxo-3,4-dihydrophthalazin-1-yl)piperidin-4-yl)ethyl)sulfamide trifluoroacetic acid], > 10 µM; as for `CC(C)(C)OC(=O)NS(=O)(=O)Nc1ccc(Cc2n[nH]c(=O)c3ccccc23)cc1` [Example 169, tert-butyl (N-(4-((4-oxo-3,4-dihydrophthalazin-1-yl)methyl)phenyl)sulfamoyl)carbamate], 1 to 10 µM.
The result for `COc1cc2c(Cc3cccc(NC(=O)OC(C)(C)C)c3)n[nH]c(=O)c2cc1OC` [Compound No. 145, tert-butyl (3-((6,7-dimethoxy-4-oxo-3,4-dihydrophthalazin-1-yl)methyl)phenyl)carbamate] reads > 10 µM; that for `COc1cc2c(Cc3ccccc3)n[nH]c(=O)c2cc1OC` [Compound No. 144, 4-benzyl-6,7-dimethoxyphthalazin-1(2H)-one], > 10 µM.
Turning to `CC(C)(C)OC(=O)NS(=O)(=O)NCc1ccc(-c2n[nH]c(=O)c3ccccc23)cc1C(F)(F)F` [Compound No. 81, tert-butyl N-(4-(4-oxo-3,4-dihydrophthalazin-1-yl)-2-(trifluoromethyl)benzyl)sulfamoyl carbamate], the IC50 was > 10 µM.
Take `COc1cc2c(Cc3ccc4c(c3)CCN4)nn(C)c(=O)c2cc1OC` [Example 166, 4-(indolin-5-yl-methyl)-6,7-dimethoxy-2-methylphthalazin-1(2H)-one hydrochloride]: the IC50 was > 10 µM.
As for `COc1cc2c(-c3ccc(CN)c(C(F)(F)F)c3)n[nH]c(=O)c2cc1OC` [Example 203, 4-(4-(aminomethyl)-3-(trifluoromethyl)phenyl-6,7-dimethoxyphthalazin-1(2.8)-one hydrochloride], the figure is > 10 µM.
The result for `COc1ccc2c(=O)n(C)nc(-c3ccc(CN)cc3)c2c1` [Compound No. 44, (4-(7-methoxy-3-methyl-4-oxo-3,4-dihydrophthalazin-1-yl)phenyl)methanaminium chloride] reads 1 to 10 µM; that for `Cn1nc(-c2cccc(NC(=O)OC(C)(C)C)c2)c2ccccc2c1=O` [Compound No. 3, tert-butyl (3(3-methyl-4-oxo-3,4-dihydrophthalazin-1-yl)phenyl)carbamate], > 10 µM; that for `CC(C)(C)OC(=O)Nc1ccc(Cc2n[nH]c(=O)c3ccccc23)cc1` [Compound No. 147, tert-butyl (4-((4-oxo-3,4-dihydrophthalazin-1-yl)methyl)phenyl)carbamate], > 10 µM.
The result for `CC(C)(C)OC(=O)NCc1cccc(-c2n[nH]c(=O)c3ccccc23)c1` [Compound No. 5] reads > 10 µM; that for `O=c1[nH]nc(-c2ccc(CNS(=O)(=O)C3CC3)cc2)c2ccccc12` [Example 196, N -(4-(4-oxo-3,4-dihydrophthalazin-1-yl)benzyl)cyclopropanesulfonamide], > 10 µM.
As for `CN(c1ccc(Cc2n[nH]c(=O)c3ccccc23)cc1)S(=O)(=O)NC(=O)OC(C)(C)C` [Example 173, tert-butyl N-methyl-N-(4-((4-oxo-3,4-dihydrophthalazin-1-yl)methyl)phenyl)sulfamoyl carbamate], the IC50 was > 10 µM.
The result for `COc1ccc2c(=O)[nH]nc(-c3ccc(CNS(=O)(=O)NC(=O)OC(C)(C)C)cc3)c2c1` [Compound No. 72] reads > 10 µM.
`COc1cc2c(Cc3ccc4c(c3)CCN4S(N)(=O)=O)n[nH]c(=O)c2cc1OC` [Example 187, 5-((6,7-dimethoxy-4-oxo-3,4-dihydrophthalazin-1-yl)methyl)indoline-1-sulfonamide hydrochloride]: the IC50 is < 1 µM.
The result for `COc1cc2c(Cc3ccc(NS(=O)(=O)NC(=O)OC(C)(C)C)cc3)nn(C)c(=O)c2cc1OC` [Example 172, tert-butyl (N-(4-((6,7-dimethoxy-3-methyl-4-oxo-3,4-dihydrophthalazin-1-yl)methyl)phenyl)sulfamoyl)carbamate] reads 1 to 10 µM.
`COc1cc2c(Cc3ccc(N)cc3)n[nH]c(=O)c2cc1OC` [Example 160, 4-(4-aminobenzyl)-6,7-dimethoxyphthalazin-1(2H)-one hydrochloride]: the IC50 was > 10 µM.
The result for `COc1cc2c(Cc3ccc(N(C)S(N)(=O)=O)cc3)nn(C)c(=O)c2cc1OC` [Example 186, N-(4-((6,7-dimethoxy-3-methyl-4-oxo-3,4-dihydrophthalazin-1-yl)methyl)phenyl)-N-methylsulfamide hydrochloride] reads < 1 µM; that for `NS(=O)(=O)NCc1ccc(-c2nn(Cc3ccc(F)cc3)c(=O)c3ccccc23)cc1` [Compound No. 102, N-(4-(3-(4-fluorobenzyl)-4-oxo-3,4-dihydrophthalazin-1-yl)benzyl)sulfamide hydrochloride], 1 to 10 µM; that for `COc1cc2c(-c3ccc4c(c3)CCNC4)n[nH]c(=O)c2cc1OC` [Compound No. 57, 6,7-dimethoxy-4-(1,2,3,4-tetrahydroisoquinolin-6-yl)phthalazin-1(2H)-one hydrochloride], 1 to 10 µM.
For the compound `NS(=O)(=O)Nc1ccc(Cc2n[nH]c(=O)c3ccccc23)cc1` [Example 180, N-(4-((4-oxo-3,4-dihydrophthalazin-1-yl)methyl)phenyl)sulfamide hydrochloride], the half-inhibitory concentration (IC50) is < 1 µM.
